One block for each compound: values may come before it.
What was measured:
[1] = Drug level in pooled human liver S9 fractions treated with (3-methyl-4-(2-(piperazin-1-yl)phenylthio)phenyl)methanol at 2 to 50 uM after 20 mins by HPLC/MS-MS analysis in presence of NADPH regenerating system with NAD+ and xanthine oxidase inhibitor allopurinol; format: ADME, subcellular, Liver S9 fraction; details: s9, 20 min
[2] = system: Liver; assay: Drug level in human liver S9 fractions treated with (3-methyl-4-(2-(piperazin-1-yl)phenylthio)phenyl)methanol at 8 to 50 uM after 20 mins by HPLC/MS-MS analysis in absence of NADPH regenerating system with NAD+; format: ADME, tissue-based; details: s9, 20 min
[3] = Drug level in human liver S9 fractions treated with (3-methyl-4-(2-(piperazin-1-yl)phenylthio)phenyl)methanol at 8 to 50 uM after 20 mins by HPLC/MS-MS analysis in presence of NADPH regenerating system with NAD+; format: ADME, subcellular, Liver S9 fraction; details: s9, 20 min
[4] = system: Liver microsome; assay: Drug level in human liver microsomes treated with (3-methyl-4-(2-(piperazin-1-yl)phenylthio)phenyl)methanol at 50 uM after 20 mins by HPLC/MS-MS analysis in presence of NADPH regenerating system with NADP+; format: ADME
[5] = target: T1, Cytochrome P450 2D6 (Homo sapiens, UniProt P10635); assay: Activity of human recombinant CYP2D6 expressed in microsomes isolated from human AHH-1 cells assessed as enzyme-mediated compound formation treated with (3-methyl-4-(2-(piperazin-1-yl)phenylthio)phenyl)methanol at 8 to 50 uM after 120 mins by HPLC/MS-MS analysis in presence of NADPH regenerating system with NADP+; format: ADME, cell-free; details: 2 h
T1 sequence (P10635 whole entry): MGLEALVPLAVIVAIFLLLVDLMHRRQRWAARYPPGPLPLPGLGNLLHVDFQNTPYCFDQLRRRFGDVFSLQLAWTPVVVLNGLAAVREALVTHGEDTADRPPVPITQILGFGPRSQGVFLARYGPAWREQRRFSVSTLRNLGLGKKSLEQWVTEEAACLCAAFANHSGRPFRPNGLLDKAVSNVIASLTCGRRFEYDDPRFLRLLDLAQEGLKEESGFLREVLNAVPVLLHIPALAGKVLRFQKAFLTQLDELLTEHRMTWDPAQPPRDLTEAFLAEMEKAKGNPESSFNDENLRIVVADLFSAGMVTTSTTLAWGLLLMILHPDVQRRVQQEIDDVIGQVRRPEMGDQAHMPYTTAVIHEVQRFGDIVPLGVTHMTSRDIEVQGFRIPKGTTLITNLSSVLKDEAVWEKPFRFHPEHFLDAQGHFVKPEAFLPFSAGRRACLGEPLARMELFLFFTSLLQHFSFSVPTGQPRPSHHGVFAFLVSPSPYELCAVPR

[6] = system: Liver microsome; assay: Drug level in phenotyped human liver microsomes treated with Lu AA21004 at 8 to 50 uM after 60 mins by HPLC/MS-MS analysis in presence of NADPH regenerating system with NADP+; format: ADME; details: 1 h
[7] = system: Liver microsome; assay: Drug level in human liver microsomes treated with (3-methyl-4-(2-(piperazin-1-yl)phenylthio)phenyl)methanol at 50 uM after 20 mins by HPLC/MS-MS analysis in absence of NADPH regenerating system with NADP+; format: ADME
[8] = system: Liver microsome; assay: Drug level in pooled human liver microsomes treated with Lu AA21004 at 100 uM after 30 to 180 mins by HPLC/MS-MS analysis in presence of NADPH regenerating system with NADP+; format: ADME
[9] = system: Liver microsome; assay: Drug level in phenotyped human liver microsomes treated with (3-methyl-4-(2-(piperazin-1-yl)phenylthio)phenyl)methanol at 8 to 50 uM after 15 mins by HPLC/MS-MS analysis in presence of NADPH regenerating system with NADP+; format: ADME; details: 0.25 h
[10] = target: T1, Cytochrome P450 2D6; assay: Activity of human recombinant CYP2D6 expressed in microsomes isolated from human AHH-1 cells assessed as enzyme-mediated compound formation treated with Lu AA21004 at 8 to 50 uM after 120 mins by HPLC/MS-MS analysis in presence of NADPH regenerating system with NADP+; format: ADME, cell-free; details: 2 h
[11] = Drug metabolism in pooled human liver S9 fractions assessed as formation of 3-methyl-4-(2-(piperazin-1-yl)phenylthio)benzoic acid per mg of protein after 20 mins by Michaelis-Menten plot analysis in presence of NADPH regenerating system with NADP+; format: ADME, subcellular, Liver S9 fraction; details: s9, 20 min
[12] = Drug metabolism in pooled human liver S9 fractions assessed as formation of 3-methyl-4-(2-(piperazin-1-yl)phenylthio)benzoic acid after 20 mins by Michaelis-Menten plot analysis in presence of NADPH regenerating system with NADP+; format: ADME, subcellular, Liver S9 fraction; details: s9, 20 min, read-out: Km(app)
[13] = target: Liver microsome; assay: Uncompetitive substrate inhibition in pooled human liver microsomes assessed as formation of 3-methyl-4-(2-(piperazin-1-yl)phenylthio)benzoic acid after 20 mins by Michaelis-Menten plot analysis in presence of NADPH regenerating system with NADP+; format: ADME
[14] = system: Liver microsome; assay: Drug metabolism in pooled human liver microsomes assessed as formation of 3-methyl-4-(2-(piperazin-1-yl)phenylthio)benzoic acid after 20 mins by Michaelis-Menten plot analysis in presence of NADPH regenerating system with NADP+; format: ADME; details: read-out: Km(app)
[15] = Drug metabolism in human liver S9 fractions assessed as formation of 3-methyl-4-(2-(piperazin-1-yl)phenylthio)benzoic acid at 8 to 50 uM after 20 mins by HPLC/MS-MS analysis in absence of NADPH regenerating system with NAD+; format: ADME, tissue-based; details: s9, 20 min
[16] = target: Cytochrome P450 2C9 (Homo sapiens, UniProt P11712); assay: Activity of human recombinant CYP2C9 expressed in microsomes isolated from human AHH-1 cells assessed as enzyme-mediated compound formation treated with Lu AA21004 at 8 to 50 uM after 120 mins by HPLC/MS-MS analysis in presence of NADPH regenerating system with NADP+; format: ADME, cell-free; details: 2 h
Cytochrome P450 2C9, sequence (P11712 whole entry): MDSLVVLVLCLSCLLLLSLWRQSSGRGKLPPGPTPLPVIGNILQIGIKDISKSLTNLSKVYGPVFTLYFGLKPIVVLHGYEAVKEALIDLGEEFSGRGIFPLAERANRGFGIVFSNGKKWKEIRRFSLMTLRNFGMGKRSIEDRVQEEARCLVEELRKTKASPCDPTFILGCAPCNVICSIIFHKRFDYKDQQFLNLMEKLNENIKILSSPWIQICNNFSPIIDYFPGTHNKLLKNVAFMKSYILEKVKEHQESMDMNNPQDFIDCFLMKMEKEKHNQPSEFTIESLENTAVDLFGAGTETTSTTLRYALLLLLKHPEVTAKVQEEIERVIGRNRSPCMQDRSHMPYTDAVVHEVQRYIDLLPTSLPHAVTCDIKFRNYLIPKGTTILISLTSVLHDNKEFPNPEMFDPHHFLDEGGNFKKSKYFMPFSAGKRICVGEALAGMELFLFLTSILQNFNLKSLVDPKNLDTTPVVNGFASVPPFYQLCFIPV

[17] = target: Cytochrome P450 2C19 (Homo sapiens, UniProt P33261); assay: Activity of human recombinant CYP2C19 expressed in microsomes isolated from human AHH-1 cells assessed as enzyme-mediated compound formation treated with Lu AA21004 at 8 to 50 uM after 120 mins by HPLC/MS-MS analysis in presence of NADPH regenerating system with NADP+; format: ADME, cell-free; details: 2 h
Cytochrome P450 2C19, sequence (P33261 whole entry): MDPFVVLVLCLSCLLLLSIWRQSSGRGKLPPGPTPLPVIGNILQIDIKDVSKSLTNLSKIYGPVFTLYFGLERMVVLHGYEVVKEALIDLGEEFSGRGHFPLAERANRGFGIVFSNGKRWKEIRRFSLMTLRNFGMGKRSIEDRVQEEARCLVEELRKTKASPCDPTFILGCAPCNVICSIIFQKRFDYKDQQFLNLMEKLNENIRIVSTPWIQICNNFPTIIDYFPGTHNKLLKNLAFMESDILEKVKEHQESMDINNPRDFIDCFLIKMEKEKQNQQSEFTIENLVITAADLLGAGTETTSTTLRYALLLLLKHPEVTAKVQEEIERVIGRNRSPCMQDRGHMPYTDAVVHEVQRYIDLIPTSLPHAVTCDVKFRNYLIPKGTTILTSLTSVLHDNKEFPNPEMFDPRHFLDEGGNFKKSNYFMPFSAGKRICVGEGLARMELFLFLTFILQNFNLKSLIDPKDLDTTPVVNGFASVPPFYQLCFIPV

[18] = (§1) Drug metabolism in pooled human liver S9 fractions assessed as formation of 3-methyl-4-(2-(piperazin-1-yl)phenylthio)benzoic acid at 2 to 50 uM after 20 mins by HPLC/MS-MS analysis in presence of NADPH regenerating system with NAD+ and xanthine oxidase inhibitor allopurinol; format: ADME, subcellular, Liver S9 fraction; details: s9, 20 min
[19] = system: Liver microsome; assay: Drug metabolism in phenotyped human liver microsomes assessed as formation of 3-methyl-4-(2-(piperazin-1-yl)phenylthio)benzoic acid at 8 to 50 uM after 15 mins by HPLC/MS-MS analysis in presence of NADPH regenerating system with NADP+; format: ADME; details: 0.25 h
[20] = Drug metabolism in human liver S9 fractions assessed as formation of 3-methyl-4-(2-(piperazin-1-yl)phenylthio)benzoic acid at 8 to 50 uM after 20 mins by HPLC/MS-MS analysis in presence of NADPH regenerating system with NAD+; format: ADME, subcellular, Liver S9 fraction; details: s9, 20 min
[21] = system: Liver microsome; assay: Drug metabolism in pooled human liver microsomes assessed as formation of 3-methyl-4-(2-(piperazin-1-yl)phenylthio)benzoic acid per mg of protein after 20 mins by Michaelis-Menten plot analysis in presence of NADPH regenerating system with NADP+; format: ADME
[22] = system: Liver microsome; assay: Drug metabolism in human liver microsomes assessed as formation of 3-methyl-4-(2-(piperazin-1-yl)phenylthio)benzoic acid at 50 uM after 20 mins by HPLC/MS-MS analysis in presence of NADPH regenerating system with NADP+; format: ADME
[23] = Intrinsic clearance in pooled human liver S9 fractions assessed as Vmax(app)/Km(app) for formation of 3-methyl-4-(2-(piperazin-1-yl)phenylthio)benzoic acid per mg of protein after 20 mins by Michaelis-Menten plot analysis in presence of NADPH regenerating system with NADP+; format: ADME, subcellular, Liver S9 fraction; details: s9, 20 min
[24] = system: Liver microsome; assay: Drug metabolism in human liver microsomes assessed as formation of 3-methyl-4-(2-(piperazin-1-yl)phenylthio)benzoic acid at 50 uM after 20 mins by HPLC/MS-MS analysis in absence of NADPH regenerating system with NADP+; format: ADME
[25] = as §1, with “NAD+, aldehyde dehydrogenase inhibitor disulfiram, aldehyde” for “NAD+ and xanthine”, “raloxifene and alcohol dehydrogenase inhibitor 4-methylpyrazole” for “allopurinol”; format: ADME, subcellular, Liver S9 fraction; details: s9, 20 min
[26] = system: Liver microsome; assay: Intrinsic clearance in pooled human liver microsomes assessed as Vmax(app)/Km(app) for formation of 3-methyl-4-(2-(piperazin-1-yl)phenylthio)benzoic acid per mg of protein after 20 mins by Michaelis-Menten plot analysis in presence of NADPH regenerating system with NADP+; format: ADME
[27] = target: T2, Cytochrome P450 2B6 (Homo sapiens, UniProt P20813); assay: Activity of human recombinant CYP2B6 expressed in microsomes isolated from human AHH-1 cells assessed as enzyme-mediated compound formation treated with Lu AA21004 at 8 to 50 uM after 120 mins by HPLC/MS-MS analysis in presence of NADPH regenerating system with NADP+; format: ADME, cell-free; details: 2 h
T2 sequence (P20813 whole entry): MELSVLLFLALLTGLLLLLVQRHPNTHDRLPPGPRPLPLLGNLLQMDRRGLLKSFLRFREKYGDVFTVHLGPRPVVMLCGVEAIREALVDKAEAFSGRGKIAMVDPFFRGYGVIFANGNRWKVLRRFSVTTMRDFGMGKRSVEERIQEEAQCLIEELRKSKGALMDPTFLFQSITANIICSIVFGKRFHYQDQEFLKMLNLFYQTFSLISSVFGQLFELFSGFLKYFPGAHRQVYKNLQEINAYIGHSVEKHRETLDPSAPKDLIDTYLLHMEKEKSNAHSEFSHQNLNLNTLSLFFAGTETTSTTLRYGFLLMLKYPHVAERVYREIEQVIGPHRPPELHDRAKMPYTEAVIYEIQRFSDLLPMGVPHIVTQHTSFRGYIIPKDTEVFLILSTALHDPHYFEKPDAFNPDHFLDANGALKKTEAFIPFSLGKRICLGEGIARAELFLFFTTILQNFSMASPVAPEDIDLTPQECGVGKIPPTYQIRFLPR

[28] = target: Cytochrome P450 3A4 (Homo sapiens, UniProt P08684); assay: Activity of human recombinant CYP3A4 expressed in microsomes isolated from human AHH-1 cells assessed as enzyme-mediated compound formation treated with Lu AA21004 at 8 to 50 uM after 120 mins by HPLC/MS-MS analysis in presence of NADPH regenerating system with NADP+; format: ADME, cell-free; details: 2 h
Cytochrome P450 3A4, sequence (P08684 whole entry): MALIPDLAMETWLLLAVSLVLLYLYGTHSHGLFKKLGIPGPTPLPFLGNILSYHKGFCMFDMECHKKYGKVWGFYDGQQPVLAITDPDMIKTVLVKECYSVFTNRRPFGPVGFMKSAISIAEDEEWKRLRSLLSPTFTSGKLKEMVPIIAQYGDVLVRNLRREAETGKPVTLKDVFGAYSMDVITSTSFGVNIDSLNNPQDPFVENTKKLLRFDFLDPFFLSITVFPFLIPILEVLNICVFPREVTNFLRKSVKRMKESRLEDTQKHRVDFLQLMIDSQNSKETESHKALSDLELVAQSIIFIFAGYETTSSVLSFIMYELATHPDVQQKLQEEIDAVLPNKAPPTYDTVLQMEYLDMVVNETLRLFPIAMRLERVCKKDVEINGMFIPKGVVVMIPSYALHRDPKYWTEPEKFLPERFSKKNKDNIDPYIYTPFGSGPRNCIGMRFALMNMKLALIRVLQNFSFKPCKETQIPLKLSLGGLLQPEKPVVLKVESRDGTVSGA

[29] = target: T3, Cytochrome P450 2C8 (Homo sapiens, UniProt P10632); assay: Activity of human recombinant CYP2C8 expressed in microsomes isolated from human AHH-1 cells assessed as enzyme-mediated compound formation treated with Lu AA21004 at 8 to 50 uM after 120 mins by HPLC/MS-MS analysis in presence of NADPH regenerating system with NADP+; format: ADME, cell-free; details: 2 h
T3 sequence (P10632 whole entry): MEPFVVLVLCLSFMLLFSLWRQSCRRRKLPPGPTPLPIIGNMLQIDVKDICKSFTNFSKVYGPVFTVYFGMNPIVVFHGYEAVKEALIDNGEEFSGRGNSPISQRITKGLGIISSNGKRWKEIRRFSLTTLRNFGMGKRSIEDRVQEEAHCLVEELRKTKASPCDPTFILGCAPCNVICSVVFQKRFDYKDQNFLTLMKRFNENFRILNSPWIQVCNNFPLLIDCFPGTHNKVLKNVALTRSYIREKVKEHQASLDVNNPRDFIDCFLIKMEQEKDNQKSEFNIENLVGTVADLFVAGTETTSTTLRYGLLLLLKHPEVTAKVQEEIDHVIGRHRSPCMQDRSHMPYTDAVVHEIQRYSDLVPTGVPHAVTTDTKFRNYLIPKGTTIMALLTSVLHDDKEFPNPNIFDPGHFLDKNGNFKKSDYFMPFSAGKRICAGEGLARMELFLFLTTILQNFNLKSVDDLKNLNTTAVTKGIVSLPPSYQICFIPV

[30] = target: T4, Cytochrome P450 2A6 (Homo sapiens, UniProt P11509); assay: Activity of human recombinant CYP2A6 expressed in microsomes isolated from human AHH-1 cells assessed as enzyme-mediated compound formation treated with Lu AA21004 at 8 to 50 uM after 120 mins by HPLC/MS-MS analysis in presence of NADPH regenerating system with NADP+; format: ADME, cell-free; details: 2 h
T4 sequence (P11509 whole entry): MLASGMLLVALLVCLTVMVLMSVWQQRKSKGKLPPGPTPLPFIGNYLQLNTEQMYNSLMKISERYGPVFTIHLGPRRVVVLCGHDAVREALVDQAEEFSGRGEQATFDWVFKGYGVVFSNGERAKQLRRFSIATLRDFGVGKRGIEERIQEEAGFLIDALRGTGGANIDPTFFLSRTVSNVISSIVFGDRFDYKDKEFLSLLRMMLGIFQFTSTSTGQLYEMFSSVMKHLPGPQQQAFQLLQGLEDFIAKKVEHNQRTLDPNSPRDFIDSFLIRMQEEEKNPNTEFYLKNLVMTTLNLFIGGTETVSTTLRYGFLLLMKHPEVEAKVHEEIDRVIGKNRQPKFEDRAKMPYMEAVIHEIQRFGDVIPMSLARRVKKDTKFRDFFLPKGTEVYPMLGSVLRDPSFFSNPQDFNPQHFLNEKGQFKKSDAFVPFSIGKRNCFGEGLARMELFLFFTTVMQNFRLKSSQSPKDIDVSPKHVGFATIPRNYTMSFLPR

Drug metabolism [1]: metabolite_detected
Drug metabolism [2]: metabolite_detected
Drug metabolism [3]: metabolite_detected
Drug metabolism [4]: metabolite_detected
Drug metabolism [5]: metabolite_detected
Drug metabolism [6]: metabolite_detected
Drug metabolism [7]: metabolite_detected
Drug metabolism [8]: metabolite_detected
Drug metabolism [9]: metabolite_detected
Drug metabolism [10]: metabolite_detected
Structure (SMILES): Cc1cc(C(=O)O)ccc1Sc1ccccc1N1CCNCC1

Drug metabolism [27]: metabolite_detected
Drug metabolism [16]: metabolite_detected
Drug metabolism [17]: metabolite_detected
Drug metabolism [6]: metabolite_detected
Drug metabolism [8]: metabolite_detected
Structure (SMILES): Cc1ccc(Sc2ccccc2N2CCN(O)CC2)c(C)c1

Second part, the compound before the results:

Structure (SMILES): Cc1cc(CO)ccc1Sc1ccccc1N1CCNCC1
Vmax(app) [11]: 1567 pmol/min
Km [12]: 1.7 µM
Ki [13]: 275 µM
Km [14]: 95 µM
Drug metabolism [15]: metabolite_detected
Drug metabolism [16]: metabolite_detected
Drug metabolism [17]: metabolite_detected
Drug metabolism [18]: metabolite_detected
Drug metabolism [19]: metabolite_detected
Drug metabolism [20]: metabolite_detected
Vmax(app) [21]: 59 pmol/min
Drug metabolism [6]: metabolite_detected
Drug metabolism [22]: metabolite_detected
Drug metabolism [8]: metabolite_detected
Vmax/Km [23]: 922 µL/min
Drug metabolism [24]: metabolite_detected
Drug metabolism [10]: metabolite_detected
Drug metabolism [25]: metabolite_not_detected
Vmax/Km [26]: 0.621 µL/min

Structure (SMILES): Cc1ccc(Sc2cc([O-])ccc2N2CCNCC2)c(C)c1.[Na+]
Drug metabolism [16]: metabolite_detected
Drug metabolism [17]: metabolite_detected
Drug metabolism [6]: metabolite_detected
Drug metabolism [8]: metabolite_detected
Drug metabolism [10]: metabolite_detected

Structure (SMILES): Cc1ccc([S+]([O-])c2ccccc2N2CCNCC2)c(C)c1.O=C(O)/C=C/C(=O)O (centres undefined)
Drug metabolism [28]: metabolite_detected
Drug metabolism [29]: metabolite_detected
Drug metabolism [30]: metabolite_detected
Drug metabolism [6]: metabolite_detected
Drug metabolism [8]: metabolite_detected

Source: ChEMBL document CHEMBL3525899, “Identification of the cytochrome P450 and other enzymes involved in the in vitro oxidative metabolism of a novel antidepressant, Lu AA21004” (Drug Metab Dispos, 2012)
